Source: patent US5451571A (The Cleveland Clinic Foundation, priority 1994, dated 1995)
Like-named read-outs stand apart in the source and are kept apart here. Values belong to the compound of their own block, whether it stands above or below them. Residues, ends and D or L forms follow the SMILES beside them. No end group written: not given here. *: point of attachment. Cbz = O=C(OCc1ccccc1)*

Key:
[1] = tested on: vascular smooth muscle cultures (VSMC) from normotensive (WKY) rats; assay: 125I-Ang I metabolism by intact vascular smooth muscle cultures of WKY (HPLC); format: cell-based, rat; conditions: for effect on the levels of 125I-Ang-(1-7) / inhibition of the formation of 125I-Ang-(1-7) from 125I-Ang I: 10 μM
Procedure: (§2) Aortic smooth muscle cells were isolated according to the following general process. The adventia and outer third medial layer were removed from segments (2 cm^2) of the thoracic aorta from SHR or WYK rats, minced into 1 cm^2 pieces and allowed to adhere on plastic for 15 minutes. The explants were incubated with Dulbecco's modified Eagles' medium (DMEM, Irvine Scientific CO., Irvine, Calif.) diluted 1:1 with F12 (Irvine Scientific) and supplemented with 10% fetal calf serum and 1% penicillin/streptomyocin in a humid atmosphere of 95% air, 5% CO2 at 37° five days and the tissues were removed after a halo of cells appeared around the explant. […] The culture medium was changed daily for the three days and thereafter, every third day. The smooth muscle cells were evaluated both for their morphological appearance and their recognition of a monoclonal antibody to smooth muscle-type alpha actin (A 2547, Sigma Chemical, St. Louis, MO).
(§3) For metabolism studies, cell monolayers (passage 4 to 6) in 24 well plates were washed twice with 1.0 ml of Krebs-Ringer solution (125 mM NaCl, 5 mM KCl, 1.0 mM CaCl2, 1.2 mMMgSO4, 25 mM HEPES, pH 7.4 and 6 mM glucose). Intact cells were incubated with ^125 I-Ang I (0.2-0.4 nM, final concentration) both in the presence and absence of enzyme inhibitors in 0.25 ml of Krebs buffer at 37° C. At selected time points, aliquots (0.05 ml) were withdrawn from the well, diluted in 0.15 ml 80% acetonitrile (ACN)/0.2% heptafluorobutyric acid (HFBA) stored at -80° C. prior to analysis by high performance liquid chromatography (HPLC). In addition, 0.20 ml of the medium, exposed to the cells for 60 minutes were incubated with ^125 I-Ang I for 60-120 minutes at 37° C. and analyzed by HPLC.
(§4) ^125 I-products were characterized by HPLC using a heptafluorobutyric acid (HFBA) solvent system. This system consisted of 0.13% HFBA (mobile phase A) and 80% ACN/0.13% HFBA (mobile phase B) and the analysis was performed on a Kratos 400 HPLC equipped with a Waters Nova-Pak C18 column (Waters, MA, 2.1×15 mm) and an Aquapore column (Waters, MA, 2.1×15 mm) and an Aquapore C8 guard column (Applied Biosystems, 3.2×1.5 mm). The gradient conditions consisted of 20-50% B Linear (30 min) and 50% B isocratic (10 min) at a flow rate of 0.3 ml/min at room temperature. HPLC fractions were collected every 0.5 min and counted in a gamma counter. Products were identified by comparison of their retention times to those of standard ^125 I-angiotensin peptides. To further assess the identity of each radioactive peak, either the incubation samples or ^125 I-products were rechromatographed using a trifluoracetic acid (TFA) solvent. This system consisted of 0.1% TFA, pH 4.5 (mobile phase A) and 60% ACN/0.1% TFA pH 4.5 (mobile phase B). A linear gradient of 15-45% B (30 min) and 45% B isocratic (10 min) at 0.3 ml/min at room temperature was performed on the HPLC system described above.
(§5) Statistics: Differences in the generation of ^125 I-peptides under various conditions were assessed by analyses of variance followed by Newman Keuls multiple comparison test. The criterion for statistical significance was set at p<0.05.

[2] = tested on: vascular smooth muscle cultures (VSMC) from spontaneously hypertensive rats; conditions: for effect on the levels of 125I-Ang-(1-7) / inhibition of the formation of 125I-Ang-(1-7) from 125I-Ang I: 10 μM
Procedure: as §2, §3, §4, §5

[3] = tested on: spontaneously hypertensive rats (SHR); assay: Third ventricle push-pull perfusion in SHR, MAP and HR; format: in vivo, rat
Procedure: (§1) In order to assess the effectiveness of Z-Proprolinal, the specific inhibitor of prolyl endopeptidase, in controlling blood pressure the following study was conducted. […] Similar studies were performed in age-matched normotensive Wistar-Kyoto control rats (WKY) (obtained from Taconic Farms, New York).

[4] = tested on: normotensive Wistar-Kyoto control rats (WKY); assay: Third ventricle push-pull perfusion in WKY, MAP and HR; format: in vivo, rat
Procedure: as §1

[5] = mammals; cited from earlier work
[6] = target: T1, prolylendopeptidase (Canis lupus familiaris, UniProt A0A8I3N6C8); assay: 125I-Ang-(1-7) production from 125I-Ang I in dog hypothalamus homogenates (HPLC); format: biochemical; conditions: DTT 1 mM
T1 construct: from tissue; host or cells: dog hypothalamus homogenate, 10,000 g supernatant
T1 sequence (A0A8I3N6C8 1-710): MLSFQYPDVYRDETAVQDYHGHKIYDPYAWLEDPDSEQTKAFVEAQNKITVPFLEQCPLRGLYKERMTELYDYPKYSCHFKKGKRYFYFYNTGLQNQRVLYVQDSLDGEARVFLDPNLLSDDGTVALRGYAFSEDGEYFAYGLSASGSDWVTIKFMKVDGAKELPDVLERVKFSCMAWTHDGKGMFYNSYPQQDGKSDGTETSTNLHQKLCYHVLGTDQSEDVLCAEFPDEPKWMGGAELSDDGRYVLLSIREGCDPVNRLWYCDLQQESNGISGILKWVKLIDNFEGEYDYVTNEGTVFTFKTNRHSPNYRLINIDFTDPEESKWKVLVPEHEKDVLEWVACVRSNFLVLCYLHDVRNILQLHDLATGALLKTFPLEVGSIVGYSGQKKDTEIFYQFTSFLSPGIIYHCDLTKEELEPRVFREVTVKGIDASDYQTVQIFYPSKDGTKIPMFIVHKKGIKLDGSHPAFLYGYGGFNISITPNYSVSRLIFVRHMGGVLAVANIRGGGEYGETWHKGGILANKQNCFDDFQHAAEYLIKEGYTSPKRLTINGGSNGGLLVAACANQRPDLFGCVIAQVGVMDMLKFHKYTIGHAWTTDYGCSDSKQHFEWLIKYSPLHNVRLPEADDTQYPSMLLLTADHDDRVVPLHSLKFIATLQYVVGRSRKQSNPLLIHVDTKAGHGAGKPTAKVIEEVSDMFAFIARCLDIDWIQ
Procedure: As a result of these discoveries, the enzyme(s) involved in the production of Ang-(1-7) in homogenates (20 mM TRIS HCl buffer, pH 7.5) of dog hypothalamus were evaluated.

[7] = tested on: NEP 24.11; conditions: human; cited from earlier work
[8] = human urine; conditions: cited from earlier work
[9] = swine urine; conditions: cited from earlier work
[10] = vascular smooth muscle; conditions: cited from earlier work
[11] = cultured mouse spinal cord cells; conditions: cited from earlier work
[12] = preparations of synaptic membranes from the rat brain; conditions: cited from earlier work
[13] = supernatants of dog brain tissue punch homogenates (ACE activity assay); conditions: mongrel dogs, 37° C., up to 15 minutes

Compound: O=C(O)CNC(=O)C(CS)Cc1ccccc1 (stereo not drawn) [thiorphan]
effect on the levels of 125I-Ang-(1-7) [1]: no effect | effect on the levels of 125I-Ang-(1-7) ([2]; SHR VSMC): no effect

Compound: O=C[C@@H]1CCCN1C(=O)[C@@H]1CCCN1C(=O)OCc1ccccc1 [ZPP, N-benzyloxycarbonyl-prolylprolinal] (Cbz-Pro-Pro-aldehyde)
fall in MAP in response to depolarizing K+ after ZPP pretreatment ([3]; K+ alone -19±4 mmHg): did not change the magnitude of the fall in MAP | HR response to depolarizing K+ after ZPP pretreatment ([3]; K+ alone -32±7 beats/min): attenuated | decrease in mean arterial pressure ([3]; ZPP 1 μM perfusion of third ventricle, n=13, basal MAP 156±5 mmHg): -37±4 mmHg | heart rate (HR) with ZPP perfusion ([3]; ZPP 1 μM, from 384±10): 376±19 beats/min | effect on either MAP or HR ([4]; WKY (n=13), ZPP 1 μM): no effect | MAP with ZPP perfusion ([4]; WKY, ZPP 1 μM, from 99±6): 100±7 mmHg | HR with ZPP perfusion ([4]; WKY, ZPP 1 μM, from 379±18): 368±27 beats/min | reduction in MAP by K+ in the presence of ZPP ([4]; WKY, K+ alone -16±3 mmHg): -6±4 mmHg | reduction in HR by K+ in the presence of ZPP ([4]; WKY, K+ alone -37±7 beats/min): -13±8 beats/min | effect on the levels of 125I-Ang-(1-7) [1]: no effect | effect on the levels of 125I-Ang-(1-7) ([2]; SHR VSMC): no effect | blood-brain barrier (BBB) passage [5]: readily traverses the blood-brain barrier

Compound: O=S(=O)(O)c1cc[c]([Hg][Cl])cc1 [PCMS, p-chloromercuriphenylsulfonate acid]
inhibition of 125I-Ang-(1-7) levels ([1]; 1 μM, data not shown): to a similar extent as that observed with cPF-AAF-pAB | inhibition of 125I-Ang-(1-7) levels ([2]; SHR VSMC, 1 μM, data not shown): to a similar extent as that observed with cPF-AAF-pAB

increase in the rate of generation of Ang-(1-7) [6]: about three fold
Compound: O[C@@H](CS)[C@@H](O)CS [DTT]

Compound: ^125 I-Ang I: 125I-labelled Ang I used as substrate (DRVYIHPFHL; also: 125I label; UniProt P01019 25-34, looked up)
125I-Ang-(1-7) generation as share of the total 125I-Ang I metabolism [2]: 65-80% | main peptide product in the medium [2]: ^125 I-Ang-(1-7)

Compound: C[C@H](NC(=O)[C@H](C)NC(CCc1ccccc1)C(=O)O)C(=O)N[C@@H](Cc1ccccc1)C(=O)Nc1ccc(C(=O)O)cc1 (stereo partly drawn) [cFP-AAF-pAB, Carboxyphenylpropyl-alanyl-alanyl-phenylalanyl-para-aminiobenzoate]
inhibition of the formation of 125I-Ang-(1-7) from 125I-Ang I [1]: 90% | inhibition of the formation of 125I-Ang-(1-7) from 125I-Ang I ([1]; listed as cPf-AAF-pAB): over 90% | inhibition of the formation of 125I-Ang-(1-7) from 125I-Ang I ([2]; SHR VSMC): 90% | inhibition of the formation of 125I-Ang-(1-7) from 125I-Ang I ([2]; SHR VSMC, listed as cPf-AAF-pAB, 10 µM): over 90%

Compound: Asp-Arg-Val-Tyr-Ile-His-Pro-Phe
cleaved bond [7]: Tyr4-Ile5 | fragment found [8]: Angiotensin-(1-7) | fragment found [9]: Angiotensin-(1-7) | fragment found [10]: Angiotensin-(1-7) | fragment found [11]: Angiotensin-(1-7) | fragment found [12]: Angiotensin-(1-7)

Compound: His-Leu
not cleaved [13]: hydrolysis of the product His-Leu was less than 6%
